# Experimental data as given in publication PMC4178217, “Quinoline 3-sulfonamides inhibit lactate dehydrogenase A and reverse aerobic glycolysis in cancer cells” (Cancer & Metabolism, 2013).
# Assays:
# Snu398 cells [1] = test: Compound cellular permeability assay, whole-cell extract; format: in vitro ADME, human; settings: Snu398 treated with 1 μM for 1.5 h
# Description: Compound cellular permeability assays For cytosolic permeability assay, twelve million Snu398 cells were allowed to attach overnight and treated with DMSO control or 1 µM Compound 2 for 1.5 h in 1.7 mM glucose medium. The medium was removed, cells were washed in phosphate-buffered saline (PBS), and cytosolic extracts were prepared by solubilization in Qproteome lysis buffer (Qiagen, Valencia, CA). For whole-cell permeability assay, 75,000 Snu398 cells/well were plated in 96-well plates and treated with DMSO control or 1 µM compounds for 1.5h in low glucose medium. The medium was removed, cells were washed in PBS and solubilized in 50:50 mixture of methanol and acetonitrile. Compound concentration in the cytosolic or whole-cell extract was determined by LC/MS/MS analysis. An Acquity UPLC system (Waters Inc., Milford, MA) was coupled to an API 4000 or API 5000 triple-quad mass spectrometer (Applied Biosystems). […] Compound concentration in cells was determined by counting the number of cells in sample wells and assuming 3 pL/cell volume.
# MDA-MB-453 cells = test: Lactate production in normoxia/hypoxia, MDA-MB-453 (YSI analyzer); settings: Homo sapiens, MDA-MB-453, 2 h, read-out: lactate production EC50 in hypoxia
# [2] = rat plasma protein equilibrium dialysis assay; format: in vitro ADME; settings: read-out: rat plasma protein binding (converted)
# HepG2 cells = test: Cell proliferation and survival, HepG2 (trypan blue, Vi-Cell); format: cell-based, human; settings: 4 to 8 days
# Description: Sixty thousand Snu398 cells per well were plated in 6-well tissue culture plates in RPMI-1640 medium supplemented with 2.5% charcoal-stripped FBS (Life Technologies). Cells were allowed to attach overnight and then DMSO control or the indicated doses of LDHA inhibitor dissolved in DMSO were added directly to the wells. After 4 to 8 days of incubation in the indicated oxygen conditions, adherent cells were trypsinized, counted, and had their viability assessed by the trypan-blue exclusion method using the Vi-Cell XR Cell Viability Analyzer (Beckman Coulter, Brea, CA, USA). The same procedure was carried out for HepG2 cells, except non-charcoal-stripped FBS was used. For PARP cleavage analysis, both floating and adherent cells were collected after 24 h and the whole-cell extracts were prepared in radioimmunoprecipitation assay (RIPA) buffer (Sigma-Aldrich) supplemented with protease and phosphatase inhibitor cocktails (Sigma-Aldrich). Solubilized proteins were separated by SDS-PAGE, transferred onto nitrocellulose membrane, and detected with each specific antibody.
# PK analysis in rats = format: in vivo, male Sprague–Dawley rats
# Description: (§1) All studies were conducted after review by the Institutional Animal Care and Use Committee at GlaxoSmithKline (GSK) and in accordance with the GSK Policy on the Care, Welfare and Treatment of Laboratory Animals.
# PK analysis in mice = format: in vivo, male CD mice; settings: oral 100 mg/kg, detection limit 2.5 ng/mL
# Description: as §1
# [3] = system: permeabilized HepG2 cells; test: Seahorse XF96 permeabilized cells (mitochondrial function); format: cell-based, human
# Description: HepG2 cells were seeded overnight in DMEM, 10% FBS, at 16,000 cells/well in an XF96 V3 PET plate. The next day, the medium was removed, and the wells were rinsed and filled with mitochondrial assay solution (MAS: 70 mM sucrose, 220 mM mannitol, 10 mM KH2PO4, 5 mM MgCl2, 2 mM HEPES, 1.0 mM EGTA) containing 10 mM pyruvate/10 mM malate/4 mM ADP and 2 nM XF Plasma Membrane Permeabilizer (PMP) (Seahorse Biosciences). […]. OCR and ECAR readings were determined for three cycles (two minutes mixing, two minutes measuring) after each compound addition.
# Snu398 cells [4] = test: Pyruvate kinase (PK) activity, Snu398; format: cell-based; settings: Homo sapiens, SNU-398; Snu398, 6 h
# Description: One and a half million cells per well were plated in 6-well tissue culture plates in R10 medium and allowed to attach overnight. The following morning, cells were washed and medium replaced with 2 mL/well of low-glucose medium. DMSO control or the indicated doses of LDHA inhibitor dissolved in DMSO were added to the wells and cells were incubated at 37°C for 6 h. Following the incubation, cells were washed, scraped into 200 μl of distilled de-ionized water and homogenized on ice using OMNI THq homogenizer (Omni International, Kennesaw, GA, USA). Homogenates were cleared by centrifugation and protein concentration measured by bicinchoninic acid (BCA) assay (Thermo Fisher Scientific, Waltham, MA, USA). PK activity was determined using PK Activity kit (BioVision Research Products) per manufacturer’s instructions and normalized to protein concentration. For detection of PKM2 oligomerization, the same protein samples were separated by non-denaturing gel electrophoresis using the NativePAGE™ gel system (Life Technologies), transferred onto polyvinylidene difluoride (PVDF) membranes and subjected to western immunoblotting with anti-PKM2 antibody.
# recombinant human LDHA = recombinant human LDHA (Homo sapiens, UniProt P00338); test: LDHA enzymatic assay with increasing levels of NADH; format: biochemical; settings: NADH 120 μM; read-out: LDHA IC50 at high NADH
# Description: LDHA enzymatic assay with increasing levels of NADH The following reaction was assembled in clear-bottom 96 well plate: 50 mM phosphate buffer pH 7.0, 50 mM NaCl, 0.25 mM CHAPS, 200 µM NaPyruvate, 250 pM recombinant human LDHA, and the indicated amounts of NADH and Compound 2. Absorbance change due to NADH conversion to NAD^+ was read on SpectraMax M2 (Molecular Devices, Sunnyvale, CA) at 340 nm every 40 sec for 6 min.
# Snu398 cells [5] = test: Compound cellular permeability assay, cytosolic extract; format: in vitro ADME, human; settings: Snu398 treated with 1 μM for 1.5 h, LC/MS/MS
# Description: The medium was removed, cells were washed in phosphate-buffered saline (PBS), and cytosolic extracts were prepared by solubilization in Qproteome lysis buffer (Qiagen, Valencia, CA). […] The medium was removed, cells were washed in PBS and solubilized in 50:50 mixture of methanol and acetonitrile. Compound concentration in the cytosolic or whole-cell extract was determined by LC/MS/MS analysis. An Acquity UPLC system (Waters Inc., Milford, MA) was coupled to an API 4000 or API 5000 triple-quad mass spectrometer (Applied Biosystems). […] Compound concentration in cells was determined by counting the number of cells in sample wells and assuming 3 pL/cell volume.
SMILES,apparent intracellular concentration versus medium (Snu398 cells [1]),EC50 (MDA-MB-453 cells),fraction unbound [2],HepG2 survival (HepG2 cells),"clearance (PK analysis in rats; male, Sprague-Dawley, rat, whole blood, IV infusion 0.25 mg/kg)","blood compound level (PK analysis in rats; oral 50 mg/kg, detection limit 2.5 ng/mL)",blood compound level (PK analysis in mice),"concentrations with no changes in OCR or ECAR ([3]; permeabilized HepG2, pyruvate/malate/ADP)","doses with direct mitochondrial effects (reduced mitochondrial respiration) ([3]; permeabilized HepG2, decreased OCR, increased ECAR)",EC50 (Snu398 cells [4]),IC50 (recombinant human LDHA),apparent intracellular concentration (cytosolic extract) (Snu398 cells [5])
COc1ncc(-c2ccc3c(Nc4cc(Oc5cc(F)cc(F)c5)cc(C(=O)O)c4)c(S(=O)(=O)NC4CC4)cnc3c2)c(OC)n1 [Compound 1],higher apparent intracellular concentrations than that of the medium,10000 nM,0.012,did not change HepG2 survival except at the highest dose,69 mL/min/kg,≤ 2.5 ng/mL,≤ 2.5 ng/mL,up to 3 μM,≥ 10 µM,600 nM,–,–
COc1ncc(-c2ccc3c(Nc4cc(C(=O)O)cc(C5CCCC5)c4)c(S(=O)(=O)NC4CC4)cnc3c2)c(OC)n1 [Compound 2],–,–,–,–,–,–,–,–,–,–,67 nM,18 µM
